Results published in ChEMBL document CHEMBL1201862, “PubChem BioAssay data set” (2004).
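How tested: cells in 96-well plates exposed to compound for 48 hours at five concentrations. The concentration for 50% growth inhibition is given as GI50.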 Activity calls are given as the source filed them. Rule as the data show it: active = GI50 up to about 1.1 µM and inactive = higher.

How the values were obtained:
Test in all cases: NCI tumour cell line growth inhibition, 48 h
A498 = system: A498
COLO 205 = system: COLO 205
DU-145 = system: DU-145
HCC 2998 = system: HCC 2998
HOP-62 = system: HOP-62
HOP-92 = system: HOP-92
HT-29 = system: HT-29
Hs-578T = system: Hs-578T
M14 = system: M14
MCF7 = system: MCF7
Malme-3M = system: Malme-3M
NCI/ADR-RES = system: NCI/ADR-RES
OVCAR-5 = system: OVCAR-5
SF-295 = system: SF-295
SF-539 = system: SF-539
SK-MEL-2 = system: SK-MEL-2
SR = system: SR
TK-10 = system: TK-10
UACC-62 = system: UACC-62

Measured: GI50

CCCCn1cnc2c(SC)ncnc21
inactive: A498 > 100 µM | COLO 205 > 100 µM | DU-145 > 100 µM | HCC 2998 > 100 µM | HOP-62 > 100 µM | HOP-92 > 100 µM | HT-29 > 100 µM | Hs-578T > 100 µM | M14 > 100 µM | MCF7 > 100 µM | Malme-3M > 100 µM | NCI/ADR-RES > 100 µM | OVCAR-5 > 100 µM | SF-295 > 100 µM | SF-539 > 100 µM | SK-MEL-2 > 100 µM | SR 3.45 µM | TK-10 > 100 µM | UACC-62 > 100 µM

O=C1/C(=C/c2ccc(O)cc2)CCc2ccccc21
inactive: A498 24.7 µM | COLO 205 22 µM | DU-145 24.8 µM | HCC 2998 22 µM | HOP-62 22.9 µM | HOP-92 36.2 µM | HT-29 21.5 µM | Hs-578T 23 µM | M14 20.2 µM | MCF7 6.38 µM | Malme-3M 20.7 µM | NCI/ADR-RES 12.7 µM | OVCAR-5 35.7 µM | SF-295 28 µM | SF-539 18 µM | SK-MEL-2 16 µM | SR 5.45 µM | TK-10 51.5 µM | UACC-62 21.5 µM

Clc1ccccc1-c1nn2c(CCCCCCCCc3nnc4sc(-c5ccccc5Cl)nn34)nnc2s1
inactive: A498 > 100 µM | COLO 205 > 100 µM | DU-145 > 100 µM | HCC 2998 > 100 µM | HOP-62 > 100 µM | HOP-92 > 100 µM | HT-29 52.1 µM | Hs-578T > 100 µM | M14 > 100 µM | MCF7 52.2 µM | Malme-3M > 100 µM | NCI/ADR-RES > 100 µM | OVCAR-5 > 100 µM | SF-295 > 100 µM | SF-539 > 100 µM | SK-MEL-2 > 100 µM | SR > 100 µM | TK-10 > 100 µM | UACC-62 > 100 µM

c1ccc2c[n+](Cc3ccnc4ccccc34)ccc2c1
inactive: A498 > 100 µM | COLO 205 67.1 µM | DU-145 > 100 µM | HCC 2998 > 100 µM | HOP-62 > 100 µM | HOP-92 97.7 µM | HT-29 51.8 µM | Hs-578T > 100 µM | M14 > 100 µM | MCF7 > 100 µM | Malme-3M > 100 µM | NCI/ADR-RES > 100 µM | OVCAR-5 > 100 µM | SF-295 > 100 µM | SF-539 > 100 µM | SK-MEL-2 > 100 µM | SR > 100 µM | TK-10 > 100 µM | UACC-62 > 100 µM

O=C1/C(=C2\Sc3c(ccc(Cl)c3Cl)C2=O)Sc2c1ccc(Cl)c2Cl
inactive: A498 > 100 µM | COLO 205 > 100 µM | DU-145 > 100 µM | HCC 2998 > 100 µM | HOP-62 12.6 µM | HOP-92 > 100 µM | HT-29 > 100 µM | Hs-578T > 100 µM | M14 > 100 µM | MCF7 > 100 µM | Malme-3M > 100 µM | NCI/ADR-RES > 100 µM | OVCAR-5 > 100 µM | SF-295 33.1 µM | SF-539 > 100 µM | SK-MEL-2 > 100 µM | SR > 100 µM | TK-10 > 100 µM | UACC-62 > 100 µM

CC(C)(C)NC(=O)/C(=C\Sc1ccccc1)c1ccccc1
inactive: A498 > 100 µM | COLO 205 > 71 µM | DU-145 > 100 µM | HCC 2998 > 100 µM | HOP-62 > 100 µM | HOP-92 2.54 µM | HT-29 > 100 µM | Hs-578T 72.1 µM | M14 > 100 µM | MCF7 > 73.8 µM | Malme-3M > 100 µM | NCI/ADR-RES > 29 µM | OVCAR-5 > 100 µM | SF-295 > 100 µM | SF-539 > 64 µM | SK-MEL-2 > 100 µM | SR 46.6 µM | TK-10 > 100 µM | UACC-62 > 100 µM

Cc1ccc(S(=O)(=O)NNC(=S)Nc2cccc3ccccc23)cc1
inactive: A498 39.1 µM | COLO 205 36.8 µM | DU-145 69 µM | HCC 2998 53.8 µM | HOP-62 59.3 µM | HOP-92 30.6 µM | HT-29 56.5 µM | Hs-578T 97.5 µM | M14 43.2 µM | MCF7 31.6 µM | Malme-3M 33.3 µM | NCI/ADR-RES 38.1 µM | OVCAR-5 89.3 µM | SF-295 34.7 µM | SF-539 80.4 µM | SK-MEL-2 4.45 µM | SR 46.3 µM | TK-10 53.7 µM | UACC-62 32.1 µM

COc1cc(C=C2C(C)=NN(c3cccc(Cl)c3)C23SCC(=O)N3c2nc3ccccc3s2)ccc1O (stereo not given)
inactive: A498 26.4 µM | COLO 205 16.9 µM | DU-145 32.4 µM | HCC 2998 24.3 µM | HOP-62 26 µM | HOP-92 18 µM | HT-29 33 µM | Hs-578T 9.46 µM | M14 40.3 µM | MCF7 27.7 µM | Malme-3M 16.5 µM | NCI/ADR-RES 33 µM | OVCAR-5 46.3 µM | SF-295 33.6 µM | SF-539 24.3 µM | SK-MEL-2 19.4 µM | SR 13.2 µM | TK-10 35.3 µM | UACC-62 26.7 µM

CC(C)OC(=O)c1ccc(CCC2=CC(=O)C(Br)=CC2=O)cc1
inactive: A498 35.9 µM | COLO 205 11.9 µM | DU-145 23.7 µM | HCC 2998 16.9 µM | HOP-62 29.6 µM | HOP-92 12.4 µM | HT-29 16.8 µM | Hs-578T 15.7 µM | M14 16.4 µM | MCF7 17.7 µM | Malme-3M 15.7 µM | NCI/ADR-RES 14.5 µM | OVCAR-5 22.1 µM | SF-295 19.9 µM | SF-539 19.2 µM | SK-MEL-2 15.6 µM | SR 3.82 µM | TK-10 19.7 µM | UACC-62 17.5 µM

CC(=O)Oc1ccc(/C=C/C(=O)NCC(NC(=O)/C=C/c2ccc(OC(C)=O)c(OC(C)=O)c2)C(=O)O)cc1OC(C)=O (stereo not given)
inactive: A498 > 100 µM | COLO 205 > 100 µM | DU-145 > 100 µM | HCC 2998 > 100 µM | HOP-62 > 100 µM | HOP-92 > 100 µM | HT-29 50.8 µM | Hs-578T > 100 µM | M14 > 100 µM | MCF7 > 100 µM | Malme-3M > 100 µM | NCI/ADR-RES > 100 µM | OVCAR-5 > 100 µM | SF-295 > 100 µM | SF-539 > 100 µM | SK-MEL-2 > 100 µM | SR 33.4 µM | TK-10 > 100 µM | UACC-62 > 100 µM
